In US8609173B2, “Compositions comprising sweetness enhancers and methods of making them” (Senomyx Inc., priority 2008, dated 2013):

Legend:
External panelists = assay: Line scale (15-point sucrose equivalence) sensory test, Example 5, sucrose or LSB, pH 7.1; format: in vivo, Human
Experimental: (§1) Several types of sensory tests were used to determine the efficacy of 3-(4-amino-2,2-dioxide-1H-benzo[c][1,2,6]thiadiazin-5-yloxy)-2′,2′-dimethyl-N-propylpropanamide 3-(4-amino-2,2-dioxide-1H-benzo[c][1,2,6]thiadiazin-5-yloxy)-2′,2′-dimethyl-N-propylpropanamide in enhancing the sweetness of sucrose. Two types of tests were conducted: • 1) Sensory scaling tests were performed using a 15-point percent sucrose equivalence scale for sweetness in order to evaluate sweetness enhancement 3-(4-amino-2,2-dioxide-1H-benzo[c][1,2,6]thiadiazin-5-yloxy)-2′,2′-dimethyl-N-propylpropanamide 3-(4-amino-2,2-dioxide-1H-benzo[c][1,2,6]thiadiazin-5-yloxy)-2′,2′-dimethyl-N-propylpropanamide in sucrose or in fructose. • 2) Paired comparison tests (2-alternative forced choice difference tests) were used to determine sweetness equivalence for solutions of sucrose vs. 3-(4-amino-2,2-dioxide-1H-benzo[c][1,2,6]thiadiazin-5-yloxy)-2′,2′-dimethyl-N-propylpropanamide 3-(4-amino-2,2-dioxide-1H-benzo[c][1,2,6]thiadiazin-5-yloxy)-2′,2′-dimethyl-N-propylpropanamide or buffer vs. 3-(4-amino-2,2-dioxide-1H-benzo[c][1,2,6]thiadiazin-5-yloxy)-2′,2′-dimethyl-N-propylpropanamide 3-(4-amino-2,2-dioxide-1H-benzo[c][1,2,6]thiadiazin-5-yloxy)-2′,2′-dimethyl-N-propylpropanamide. Stimuli:
Tests were performed with sucrose or fructose. The sweetener was evaluated with and/or without 3-(4-amino-2,2-dioxide-1H-benzo[c][1,2,6]thiadiazin-5-yloxy)-2′,2′-dimethyl-N-propylpropanamide 3-(4-amino-2,2-dioxide-1H-benzo[c][1,2,6]thiadiazin-5-yloxy)-2′,2′-dimethyl-N-propylpropanamide at the appropriate concentration(s).
3-(4-amino-2,2-dioxide-1H-benzo[c][1,2,6]thiadiazin-5-yloxy)-2′,2′-dimethyl-N-propylpropanamide was prepared as a concentrated stock solution in ethanol to ensure dissolution of the 3-(4-amino-2,2-dioxide-1H-benzo[c][1,2,6]thiadiazin-5-yloxy)-2′,2′-dimethyl-N-propylpropanamide. Therefore, all taste solutions contained ethanol in the final solution. Samples without 3-(4-amino-2,2-dioxide-1H-benzo[c][1,2,6]thiadiazin-5-yloxy)-2′,2′-dimethyl-N-propylpropanamide also contained an equivalent concentration of ethanol. For samples involving 3-(4-amino-2,2-dioxide-1H-benzo[c][1,2,6]thiadiazin-5-yloxy)-2′,2′-dimethyl-N-propylpropanamide at 5-10 ppm (up to 28 μM), the final concentration of ethanol was 0.2%; 30-40 μM, 0.4% ethanol; 50 μM, 0.5% ethanol; and 100 μM, 1% ethanol.
Taste samples were also prepared in low sodium phosphate buffer (pH 7.1; “LSB”) lacking sucrose to evaluate the taste of 3-(4-amino-2,2-dioxide-1H-benzo[c][1,2,6]thiadiazin-5-yloxy)-2′,2′-dimethyl-N-propylpropanamide alone. Low sodium phosphate buffer consists of 0.3 mM KCl, 0.5 mM Na2HPO4, and 0.175 mM KH2PO4.
In scaling test situations, the samples were rated on a 15-point scale for sweetness, ranging from 0=0% sucrose to 15=15% sucrose. To evaluate attributes other than sweetness, references are used for training and are prepared according to the table below. Note that each reference was given a score of 5 on the 15-point scale.
External panelists were used for the tests. The exact number of panelists is reported with test results. Subjects were instructed not to eat or drink anything (except water) for at least 1 hour prior to the test.
Panelists rinsed their mouths with water prior to starting any test. Samples were presented to panelists in a randomized, counterbalanced order. Panelists rinsed with water and had up to a 1 minute delay to clear the mouth of any tastes after each evaluation. Two replicates of each test were performed, unless otherwise noted.
In scaling tests, panelists rate samples monadically for the attributes listed above (see Stimuli). In paired comparison tests, panelists taste pairs of solutions and indicate which sample is perceived to be sweeter.
Attributes of interest are reported for each scaling taste test.
Panelists rinsed their mouths with water prior to starting any test. Samples were presented to panelists in a randomized, counterbalanced order. […]

Panelists = assay: Paired comparison taste test, Example 7, sucrose or fructose solutions; format: in vivo, Human
Experimental: as §1
Panelists evaluated two solutions in a paired comparison taste test procedure. They were instructed to select the sweeter of the two samples. They were also asked to comment on how difficult it was to tell the difference in sweetness between both samples and if any off tastes were perceived.
Panelists evaluated two solutions in a paired comparison taste test procedure and were instructed to select the sweeter of the two samples.

**Q.** How did the off tastes (External panelists; 25.0 μM (8.9 ppm) compound on its own) turn out when `CCCNC(=O)C(C)(C)COc1cccc2c1C(N)=NS(=O)(=O)N2` [3-(4-amino-2,2-dioxide-1H-benzo[c][1,2,6]thiadiazin-5-yloxy)-2′,2′-dimethyl-N-propylpropanamide] was run?
**A.** no significant off tastes

**Q.** And the “Average Sweetness” value (External panelists; 25 μM (8.9 ppm) compound on its own, pH 7, n = 30)?
**A.** 0.6

**Q.** And the “Sweetness vs sucrose solutions (conclusion)” value (shortened to “Sweetness vs sucrose solutions”) (External panelists; 25.0 μM (8.9 ppm) compound on its own, p>0.10)?
**A.** not significantly different in sweetness than 0% sucrose

**Q.** What about the “Average Bitterness” value (External panelists; 25 μM compound on its own, n = 30) of the same molecule?
**A.** 0.2

**Q.** And the “Average Sweetness” value (External panelists; 50 μM (17.7 ppm) compound on its own in LSB, pH 7.1, n = 14)?
**A.** 1.3

**Q.** What about the bitter off tastes (External panelists; 50 μM compound in LSB, pH 7.1) of the same molecule?
**A.** no significant bitter off tastes

**Q.** And the off tastes (External panelists; 50 μM compound on its own in LSB)?
**A.** no significant off tastes

**Q.** What about the “Average Bitterness” value (External panelists; 1% Sucrose + 5 ppm (14.11 μM) compound, n = 30) of the same molecule?
**A.** 0.4

**Q.** What about the “Average Sweetness” value (External panelists; 1% Sucrose + 5 ppm (14.11 μM) compound, pH 7.1, n = 30) of the same molecule?
**A.** 2.5

**Q.** And the “Sweetness vs sucrose solutions” value (External panelists; 1% sucrose + 5 ppm compound, p>0.10)?
**A.** not significantly different in sweetness than 2% sucrose

**Q.** What about the off tastes (External panelists; 1-10 ppm compound in 6% sucrose, LSB, pH 7.1) of the same molecule?
**A.** no significant off tastes

**Q.** What about the “Average Sweetness” value (External panelists; 2% Sucrose + 25 μM (8.9 ppm) compound, pH 7.1, n = 28) of the same molecule?
**A.** 5.6

**Q.** And the “Average Bitterness” value (External panelists; 2% Sucrose + 25 μM compound, n = 28)?
**A.** 0.3

**Q.** And the “Average Bitterness” value (External panelists; 2% Sucrose + 5 ppm (14.11 μM) compound, n = 30)?
**A.** 0.2

**Q.** What about the “Average Sweetness” value (External panelists; 2% Sucrose + 5 ppm (14.11 μM) compound, pH 7.1, n = 30) of the same molecule?
**A.** 4.6

**Q.** What about the “Sweetness vs sucrose solutions” value (External panelists; 2% sucrose + 5 ppm compound) of the same molecule?
**A.** not significantly different in sweetness than 4% sucrose

**Q.** What about the “Sweetness vs sucrose solutions” value (External panelists; 2% sucrose + 8.9 ppm compound, p>0.10) of the same molecule?
**A.** not significantly different in sweetness than 6% sucrose

**Q.** What about the “Average Sweetness” value (External panelists; 4% Sucrose + 25 μM (8.9 ppm) compound, pH 7.1, n = 28) of the same molecule?
**A.** 8.3

**Q.** And the “Average Bitterness” value (External panelists; 4% Sucrose + 25 μM compound, n = 28)?
**A.** 0.3

**Q.** And the “Average Bitterness” value (External panelists; 4% Sucrose + 5 ppm (14.11 μM) compound, n = 30)?
**A.** 0.2

**Q.** And the “Average Sweetness” value (External panelists; 4% Sucrose + 5 ppm (14.11 μM) compound, pH 7.1, n = 30)?
**A.** 8.1

**Q.** And the “Sweetness vs sucrose solutions” value (External panelists; 4% sucrose + 5 ppm compound, p>0.10)?
**A.** not significantly different in sweetness than 8% sucrose

**Q.** And the “Sweetness vs sucrose solutions” value (External panelists; 4% sucrose + 8.9 ppm compound, p>0.10)?
**A.** not significantly different in sweetness than 8% sucrose

**Q.** And the off tastes (External panelists; 5 ppm compound in 1-6% sucrose, LSB, pH 7.1)?
**A.** no significant off tastes

**Q.** And the “Average Sweetness” value (External panelists; 6% Sucrose + 25 μM (8.9 ppm) compound, pH 7.1, n = 24)?
**A.** 10.6

**Q.** And the “Sweetness vs sucrose solutions” value (External panelists; 6% Sucrose + 25 μM compound, p>0.10)?
**A.** not significantly different in sweetness than 10% or 12% sucrose

**Q.** What about the “Average Bitterness” value (External panelists; 6% Sucrose + 25 μM compound, pH 7.1, n = 24) of the same molecule?
**A.** 0.1

**Q.** And the “Average Sweetness” value (External panelists; 6% Sucrose + 50 μM (17.7 ppm) compound, pH 7.1, n = 15)?
**A.** 9.9

**Q.** What about the “Sweetness vs sucrose solutions” value (External panelists; 6% Sucrose + 50 μM compound, p>0.10) of the same molecule?
**A.** not significantly different in sweetness compared to 10% or 12% Sucrose

**Q.** And the “Average Bitterness” value (External panelists; 6% Sucrose + 50 μM compound, pH 7.1, n = 15)?
**A.** 0.2

**Q.** And the “Average Bitterness” value (External panelists; 6% Sucrose + 1 ppm (2.82 μM) compound, n = 30)?
**A.** 0.7

**Q.** And the “Average Sweetness” value (External panelists; 6% Sucrose + 1 ppm (2.82 μM) compound, pH 7.1, n = 30)?
**A.** 7.5

**Q.** And the “Average Bitterness” value (External panelists; 6% Sucrose + 2 ppm (5.64 μM) compound, n = 30)?
**A.** 0.4

**Q.** And the “Average Sweetness” value (External panelists; 6% Sucrose + 2 ppm (5.64 μM) compound, pH 7.1, n = 30)?
**A.** 8.0

**Q.** What about the “Average Bitterness” value (External panelists; 6% Sucrose + 4 ppm (11.29 μM) compound, n = 30) of the same molecule?
**A.** 0.4

**Q.** And the “Average Sweetness” value (External panelists; 6% Sucrose + 4 ppm (11.29 μM) compound, pH 7.1, n = 30)?
**A.** 10.1

**Q.** What about the “Average Bitterness” value (External panelists; 6% Sucrose + 5 ppm (14.11 μM) compound, n = 30) of the same molecule?
**A.** 0.4

**Q.** What about the “Average Sweetness” value (External panelists; 6% Sucrose + 5 ppm (14.11 μM) compound, pH 7.1, n = 30) of the same molecule?
**A.** 10.2

**Q.** And the “Average Bitterness” value (External panelists; 6% Sucrose + 7 ppm (19.75 μM) compound, n = 30)?
**A.** 0.3

**Q.** What about the “Average Sweetness” value (External panelists; 6% Sucrose + 7 ppm (19.75 μM) compound, pH 7.1, n = 30) of the same molecule?
**A.** 10.3

**Q.** What about the “Sweetness vs sucrose solutions” value (External panelists; 6% Sucrose + 7 ppm compound, p>0.10) of the same molecule?
**A.** not significantly different than 10% or 12% sucrose

**Q.** What about the “Average Bitterness” value (External panelists; 6% Sucrose + 10 ppm (28.22 μM) compound, n = 30) of the same molecule?
**A.** 0.6

**Q.** And the “Average Sweetness” value (External panelists; 6% Sucrose + 10 ppm (28.22 μM) compound, pH 7.1, n = 30)?
**A.** 10.9

**Q.** And the “Sweetness vs sucrose solutions” value (External panelists; 6% Sucrose + 10 ppm compound, p>0.10)?
**A.** not significantly different than 10% or 12% sucrose

**Q.** What about the off tastes (External panelists; 6% sucrose + 25 μM compound) of the same molecule?
**A.** no significant off tastes

**Q.** And the “Sweetness vs sucrose solutions” value (External panelists; 6% sucrose + 4 ppm compound, p>0.10)?
**A.** not significantly different than 10% sucrose

**Q.** What about the off tastes (External panelists; 8.9 ppm compound in 2-4% sucrose, LSB, pH 7.1) of the same molecule?
**A.** no significant off tastes

**Q.** And the “Sample selected as more sweet by panelists, Total” value (Panelists; 28 μM (9.9 ppm) compound chosen, vs 1% Sucrose, n = 32)?
**A.** 4

**Q.** And the “Sweetness comparison (conclusion)” value (Panelists; 28 μM compound vs 1% sucrose)?
**A.** 1% sucrose was significantly sweeter

**Q.** What about the “Sample selected as sweeter by panelists, Test 1” value (Panelists; 6% Fructose + 25 μM (8.9 ppm) compound chosen, vs 6% Fructose, N = 25) of the same molecule?
**A.** 20

**Q.** And the “Sample selected as more sweet by panelists, Test 1” value (Panelists; 6% Fructose + 25 μM (8.9 ppm) compound chosen, vs 7% Fructose, N = 25)?
**A.** 12

**Q.** And the “Sweetness comparison (conclusion)” value (Panelists; 6% fructose + 25 μM compound vs 6% fructose, p<0.05)?
**A.** significantly sweeter than 6% fructose

**Q.** What about the “Sweetness comparison (conclusion)” value (Panelists; 6% fructose + 25 μM compound vs 7% fructose) of the same molecule?
**A.** no significant difference in sweetness
